Patent publication US5239110A, “Phenylcyclohexanol derivatives as agents for treating CNS disorders” (Sterling Winthrop, Inc., priority 1992, dated 1993)

Biological target: sigma receptors
Test: sigma receptor binding, [3H]di(2-tolyl)guanidine (DTG) assay
Parameters: species or system guinea pig (male Hartley), brain tissue
Details: [3H]DTG approx. 4 nM, 25° C., 90 min, guinea pig brain membranes; for Ki: pH 7.4
Procedure: Brain tissue was prepared from male Hartley guinea pigs (Hazelton Labs, Denver, PA) which were anesthetized with CO2 and sacrificed by decapitation. All animal care and use procedures were in accord with the "Guide for the Care and Use of Laboratory Animals" (NIH Publ. No. 86-23, 20 1985). Homogenization was performed in 10 volumes (wt/vol) of 0.32 M sucrose with a Brinkmann Polytron at setting 5, 30 sec. The homogenate was centrifuged at 900×g for 10 min at 4° C., and the supernatant was collected and centrifuged at 22,000×g for 20 min at 4° C. The pellet was resuspended in 10 volumes of Tris-HCl buffer (50 mM, pH 7.4), incubated at 37° C. for 30 min and centrifuged at 22,000×g for 20 min at 4° C. Following this, the pellet was resuspended in Tris buffer and frozen in 5-10 mL aliquots corresponding to a tissue concentration of 100 mg/mL at -70° C. Binding characteristics of the membranes were stable for at least one month when stored at -70° C.
On the day of the assay, membrane aliquots were thawed, resuspended in fresh Tris buffer and stored on ice until use. Each assay tube contained 100 μL of [3H](+)pentazocine at a final concentration of approximately 0.5 nM, [3H]di(2-tolyl)guanidine (DTG) at a final concentration of approximately 4 nM, 100 μL of various concentrations of the compounds of interest, 500 μL of the tissue suspension and 300 μL of buffer to a final assay volume of 1 mL and a final tissue concentration of approximately 8 mg/tube, corresponding to approximately 0.15 mg protein/tube. Nonspecific binding was defined by addition of a final concentration of 1 μM haloperidol to blank tubes for [^3 H]+pentazocine assay or by addition of a final concentration of 10 μM haloperidol to blank tubes for [^3 H]DTG assay. All tubes were incubated at 37° C. for 150 minutes ([^3 H]+pentazocine) or at 25° C. for 90 min ([3H]DTG) before termination of the reaction by filtration over Whatman GF/B glass fiber filters that were presoaked in a solution of 0.5% polyethyleneimine for at least 1 hr prior to use. Filters were washed with three 4 mL volumes of cold Tris-HCl buffer.
Following addition of scintillation cocktail, samples were allowed to equilibrate for at least 4 hr. The amount of bound radioactivity was determined by liquid scintillation spectrometry using a Beckman LS 5000 TA liquid scintillation counter with an efficiency for tritium of approximately 60%.
Data obtained on the compounds in the di(2-tolyl)guanidine (DTG) and d-pentazocine (+pent) assays, expressed as a Ki value in nM or % inhibition at 10 nM, are as follows: […]

SMILES: CCC(=O)O[C@]1(c2ccccc2)CC[C@@H](N(C)C)CC1 [Example 4, trans-4(dimethylamino)-1-phenylcyclohexyl propionate]
- Ki: 4.08 µM

SMILES: CCC(=O)O[C@]1(c2ccccc2)CC[C@H](N(C)C)CC1 [Example 3, cis-4-(dimethylamino)-1-phenylcyclohexyl propionate]
- Ki: 0.288 µM

SMILES: CC(=O)O[C@]1(c2ccccc2)CC[C@H](N(C)C)CC1 [Example 2, cis-4-(dimethylamino)-1-phenylcyclohexylacetate]
- Ki: 5 µM

SMILES: CN(C)C1CCC(O)(c2ccccc2)CC1 (stereo not shown) [Example 1, 4-(Dimethylamino)-1-phenylcyclohexanol]
- DTG % inhib (10 nM) (at 10 nM): 61%
